According to the NIST ThermoML archive (doi:10.1016/j.fluid.2005.05.023):
Numbers after ± are expanded uncertainties.

Conditions: Liquid, Vibrating tube method

`Cc1ccccc1` [toluene] showed a mass density (283.15 K, 100 kPa) of 876.1 ± 0.2 kg/m3, a mass density (283.15 K, 5000 kPa) of 879.5 ± 0.2 kg/m3 and a mass density (283.15 K, 10000 kPa) of 882.9 ± 0.3 kg/m3. For the same molecule, the mass density (283.15 K, 15000 kPa) was 886.1 ± 0.3 kg/m3, the mass density (283.15 K, 20000 kPa) was 889.3 ± 0.3 kg/m3 and the mass density (283.15 K, 25000 kPa) was 892.4 ± 0.3 kg/m3. The mass density (283.15 K, 30000 kPa) was 895.3 ± 0.3 kg/m3, the mass density (283.15 K, 35000 kPa) was 898.2 ± 0.3 kg/m3 and the mass density (283.15 K, 40000 kPa) was 901 ± 0.3 kg/m3. The mass density (283.15 K, 45000 kPa) was 903.7 ± 0.3 kg/m3, the mass density (293.15 K, 100 kPa) was 866.8 ± 0.2 kg/m3 and the mass density (293.15 K, 5000 kPa) was 870.5 ± 0.2 kg/m3. The mass density (293.15 K, 10000 kPa) was 874.1 ± 0.3 kg/m3, the mass density (293.15 K, 15000 kPa) was 877.5 ± 0.3 kg/m3 and the mass density (293.15 K, 20000 kPa) was 880.8 ± 0.3 kg/m3. For the same molecule, the mass density (293.15 K, 25000 kPa) was 884 ± 0.3 kg/m3, the mass density (293.15 K, 30000 kPa) was 887.1 ± 0.3 kg/m3 and the mass density (293.15 K, 35000 kPa) was 890.1 ± 0.3 kg/m3. For the same molecule, the mass density (293.15 K, 40000 kPa) was 893 ± 0.3 kg/m3, the mass density (293.15 K, 45000 kPa) was 895.9 ± 0.3 kg/m3 and the mass density (303.15 K, 100 kPa) was 857.5 ± 0.2 kg/m3. It also gave a mass density (303.15 K, 5000 kPa) of 861.4 ± 0.2 kg/m3, a mass density (303.15 K, 10000 kPa) of 865.2 ± 0.3 kg/m3 and a mass density (303.15 K, 15000 kPa) of 868.8 ± 0.3 kg/m3. For the same molecule, the mass density (303.15 K, 20000 kPa) was 872.3 ± 0.3 kg/m3, the mass density (303.15 K, 25000 kPa) was 875.7 ± 0.3 kg/m3 and the mass density (303.15 K, 30000 kPa) was 879 ± 0.3 kg/m3. The mass density (303.15 K, 35000 kPa) was 882.1 ± 0.3 kg/m3, the mass density (303.15 K, 40000 kPa) was 885.2 ± 0.3 kg/m3 and the mass density (303.15 K, 45000 kPa) was 888.1 ± 0.3 kg/m3. The mass density (313.15 K, 100 kPa) was 848.1 ± 0.2 kg/m3, the mass density (313.15 K, 5000 kPa) was 852.2 ± 0.3 kg/m3 and the mass density (313.15 K, 10000 kPa) was 856.2 ± 0.3 kg/m3. It also gave a mass density (313.15 K, 15000 kPa) of 860 ± 0.3 kg/m3, a mass density (313.15 K, 20000 kPa) of 863.7 ± 0.3 kg/m3 and a mass density (313.15 K, 25000 kPa) of 867.3 ± 0.3 kg/m3. For the same molecule, the mass density (313.15 K, 30000 kPa) was 870.7 ± 0.3 kg/m3, the mass density (313.15 K, 35000 kPa) was 874 ± 0.3 kg/m3 and the mass density (313.15 K, 40000 kPa) was 877.2 ± 0.3 kg/m3. For the same molecule, the mass density (313.15 K, 45000 kPa) was 880.3 ± 0.3 kg/m3, the mass density (323.15 K, 100 kPa) was 838.6 ± 0.2 kg/m3 and the mass density (323.15 K, 5000 kPa) was 843 ± 0.3 kg/m3. For the same molecule, the mass density (323.15 K, 10000 kPa) was 847.2 ± 0.3 kg/m3, the mass density (323.15 K, 15000 kPa) was 851.3 ± 0.3 kg/m3 and the mass density (323.15 K, 20000 kPa) was 855.2 ± 0.3 kg/m3. For the same molecule, the mass density (323.15 K, 25000 kPa) was 858.9 ± 0.3 kg/m3, the mass density (323.15 K, 30000 kPa) was 862.5 ± 0.3 kg/m3 and the mass density (323.15 K, 35000 kPa) was 866 ± 0.3 kg/m3. It also gave a mass density (323.15 K, 40000 kPa) of 869.4 ± 0.3 kg/m3, a mass density (323.15 K, 45000 kPa) of 872.6 ± 0.4 kg/m3 and a mass density (333.15 K, 100 kPa) of 828.8 ± 0.2 kg/m3. It also gave a mass density (333.15 K, 5000 kPa) of 833.5 ± 0.3 kg/m3, a mass density (333.15 K, 10000 kPa) of 838 ± 0.3 kg/m3 and a mass density (333.15 K, 15000 kPa) of 842.3 ± 0.3 kg/m3. It also gave a mass density (333.15 K, 20000 kPa) of 846.4 ± 0.3 kg/m3, a mass density (333.15 K, 25000 kPa) of 850.4 ± 0.3 kg/m3 and a mass density (333.15 K, 30000 kPa) of 854.2 ± 0.3 kg/m3. It also gave a mass density (333.15 K, 35000 kPa) of 857.9 ± 0.3 kg/m3, a mass density (333.15 K, 40000 kPa) of 861.4 ± 0.4 kg/m3 and a mass density (333.15 K, 45000 kPa) of 864.8 ± 0.4 kg/m3. It also gave a mass density (343.15 K, 100 kPa) of 819.2 ± 0.2 kg/m3, a mass density (343.15 K, 5000 kPa) of 824.1 ± 0.3 kg/m3 and a mass density (343.15 K, 10000 kPa) of 829 ± 0.3 kg/m3. The mass density (343.15 K, 15000 kPa) was 833.5 ± 0.3 kg/m3, the mass density (343.15 K, 20000 kPa) was 837.9 ± 0.3 kg/m3 and the mass density (343.15 K, 25000 kPa) was 842.1 ± 0.3 kg/m3. For the same molecule, the mass density (343.15 K, 30000 kPa) was 846 ± 0.3 kg/m3, the mass density (343.15 K, 35000 kPa) was 849.9 ± 0.4 kg/m3 and the mass density (343.15 K, 40000 kPa) was 853.5 ± 0.4 kg/m3. For the same molecule, the mass density (343.15 K, 45000 kPa) was 857 ± 0.4 kg/m3, the mass density (353.15 K, 100 kPa) was 809.4 ± 0.2 kg/m3 and the mass density (353.15 K, 5000 kPa) was 814.7 ± 0.3 kg/m3. The mass density (353.15 K, 10000 kPa) was 819.9 ± 0.3 kg/m3, the mass density (353.15 K, 15000 kPa) was 824.7 ± 0.3 kg/m3 and the mass density (353.15 K, 20000 kPa) was 829.3 ± 0.3 kg/m3. For the same molecule, the mass density (353.15 K, 25000 kPa) was 833.7 ± 0.3 kg/m3, the mass density (353.15 K, 30000 kPa) was 837.9 ± 0.3 kg/m3 and the mass density (353.15 K, 35000 kPa) was 841.9 ± 0.4 kg/m3. It also gave a mass density (353.15 K, 40000 kPa) of 845.7 ± 0.4 kg/m3 and a mass density (353.15 K, 45000 kPa) of 849.4 ± 0.4 kg/m3.
